Results published in patent US6683061B1, “Enzyme catalyzed therapeutic activation” (NewBiotics, Inc., priority 1999, dated 2004).
Read-outs that look alike come from different tables or passages of the source.

Experiments:
[1] = system: MCF7TDX; assay: AlamarBlue cell proliferation assay; assay type: cell-based, human; conditions: 120 hours drug exposure
Procedure: (§1) Cells growing exponentially were transferred to 384-well flat bottom tissue culture plates. All cell types were plated at a density of 500 cells per well in 25 μL of complete medium (RPMI 1640+10% fetal bovine serum+antibiotics/antimycotics). After 24 hours (day 0), 25 μL of complete medium containing the compounds over the dose range of 10^−3 to 10^−10 M were added in triplicate. Drug exposure time was 120 hours (day 5), after which growth inhibition was assayed. 5 μL of the redox indicator, alamarBlue, was added to each well (10% v/v). After 4 hours incubation at 37° C., fluorescence was monitored at 535 nm excitation and 595 nm emission.
(§2) Numbering in Tables 5 and 6 refer to the structures, shown infra. Results from testing using the alamarBlue assay are shown in Table 5, and results from crystal violet based assays are shown in Table 6. MCF7-TDX was derived from MCF7 breast tumor cells via selection in cell culture in the presence of Tomudex, a direct inhibitor of TS. Such selection often results in high intracellular levels of TS (Freemantle, S. J. et al. (1995)). Similarly, H630R10 is a 5FU (fluoropyrimidine) resistant colon cancer epithelial cell line derived from H630 colon cancer cells. See, Copur, S. et al. (1995). HT1080, #12, is a fibrosarcoma tumor cell line that expresses high levels of TS via a transgene introduced into HT1080 tumor cells. […]

[2] = system: HT1080 #12; assay: Crystal violet cell proliferation inhibition assay; assay type: cell-based; conditions: crystal violet procedure, Table 7; high TS; read-out: Cytotoxic Activity, TS HT1080 #12
Text: (§3) Numbering in Tables 5 and 6 refer to the structures, shown infra. Results from testing using the alamarBlue assay are shown in Table 5, and results from crystal violet based assays are shown in Table 6. MCF7-TDX was derived from MCF7 breast tumor cells via selection in cell culture in the presence of Tomudex, a direct inhibitor of TS. Such selection often results in high intracellular levels of TS (Freemantle, S. J. et al. (1995)). Similarly, H630R10 is a 5FU (fluoropyrimidine) resistant colon cancer epithelial cell line derived from H630 colon cancer cells. See, Copur, S. et al. (1995). HT1080, #12, is a fibrosarcoma tumor cell line that expresses high levels of TS via a transgene introduced into HT1080 tumor cells. Normal cell lines used in these assays include CCD18co (normal colon epithelium) and Det551 (normal skin).

[3] = system: CCd18co; assay: Crystal violet cell proliferation inhibition assay; assay type: cell-based, human
Text: as §3

[4] = system: Det551; assay: Crystal violet cell proliferation inhibition assay; assay type: cell-based, human
Text: as §3

[5] = system: MCF7TDX; assay: Crystal violet cell proliferation inhibition assay; conditions: read-out: Cytotoxic Activity, MCF7TDX
Procedure: The ability of the test compounds to block proliferation of cells was determined by the crystal violet procedure.
Compounds were dissolved in dimethyl sulfoxide to a concentration of 1M. They were further diluted as necessary into DMEM cell culture medium, and subsequently into the first wells of the 96-well microtiter plate. Each concentration was tested in triplicate on the target cell line. Compound concentrations from 1 μM to 3000 μM were tested. Cells were incubated with compound for 72 hours, the plates were washed, and the cells fixed with methanol and stained with crystal violet as described in Sugarman, B. J. et al. (1985); and Antelman, D. et al. (1995).
The ability of each isolated compound to block cell proliferation was then determined by the crystal violet procedure.
The first two cell lines, TS HT1080 #12 and MCF7TDX express high levels of TS, while the other two, CCD18co and Det551, are normal cells.

[6] = system: normal and tumor cells; assay: Cell proliferation assays (alamarBlue, crystal violet), results stated in words; assay type: cell-based, human; conditions: summary of Tables 5-7
Procedure: as §1
The data in both Tables 5 and 6 indicate that most compounds are active as phosphoramidates and nucleosides. […] Cytotoxicity results with the nucleosides, especially BVdU, NB1020™ (ClVdU) and NB1024™, are surprising since the literature teaches that 5-substituted compounds like BVdU are not efficiently monophosphorylated by human cells unless they express viral thymidine kinase. See, Balzarini, J. et al. (1985) and De Clerq, E. et al. (1997). These authors have proposed that once phosphorylated by the herpesvirus-encoded TK, the 5-substituted nucleotide derivative can bind to the TS enzyme and inactivate it. […] Alternatively, some tumor cells may have an unusually high amount, or form the normal TK enzyme (Suki, S. et al. (1995); and Romain, S. et al. (1995)), leading to a low, but sufficient activation of nucleosides to their corresponding monophosphates.

[7] = system: H630R10; assay: Amount of nucleoside and monophosphate in cells (HPLC of lysates); assay type: cell-based, human; conditions: 100 μm BVdU, 2 days treatment
Procedure: (§4) Cells were incubated in complete media with 100 μm BVdU.

[8] = system: MCF7TDX; assay: as above; assay type: cell-based, human; conditions: 100 μm BVdU, 2 days treatment
Procedure: as §4

[9] = system: MCF7; assay: as above; assay type: cell-based, human; conditions: 100 μm BVdU, 2 days treatment
Procedure: as §4

[10] = Crystal violet cell proliferation inhibition assay; assay type: cell-based, human; conditions: human, crystal violet procedure, Table 7, normal cells
Text: as §3

[11] = system: H630R10; assay: AlamarBlue cell proliferation assay; assay type: cell-based, human; conditions: 120 hours drug exposure
Procedure: as §1, §2

[12] = crystal violet procedure, Table 7, normal cells, read-out: Cytotoxic Activity, CCD18co
[13] = crystal violet procedure, Table 7, normal cells, read-out: Cytotoxic Activity, Det551
[14] = crystal violet procedure, Table 7, high TS

| Compound | IC50 [2] | IC50 [3, 12] | IC50 [4, 13] | IC50 [5, 14] | cytotoxic / growth inhibiting activity in words [6] | also measured |
| --- | --- | --- | --- | --- | --- | --- |
| 5-(2-Bromovinyl)-2′-Deoxyuridine Phenyl N-Methoxy-L-alaninyl Phosphoramidate [NB1011] | 4.3 µM | 461 µM | 263 µM | 4.2 µM | – | IC50 [1]: 2 µM; IC50 ([3]; crystal violet, 72 hours, normal colon epithelium, read-out: IC50 CCD18co): 408 µM; IC50 ([4]; crystal violet, 72 hours, normal skin, read-out: IC50 Det551): 356 µM |
| O=c1[nH]c(=O)n([C@H]2C[C@H](O)[C@@H](CO)O2)cc1/C=C/C=C\Br (single isomer, unassigned; isomer 1) [NB1024 Isomer 1, 5-(4-Bromo-1E,3Z-butadienyl)-2′-dexoyuridine] | 10.1 µM | > 300 µM | – | 9.8 µM | significantly greater growth inhibiting activity | – |
| O=c1[nH]c(=O)n([C@H]2C[C@H](O)[C@@H](CO)O2)cc1/C=C/C=C/Br (single isomer, unassigned; isomer 2) [NB1024 Isomer 2, 5-(4-Bromo-1E,3E-butadienyl)-2′-dexoyuridine] | > 300 µM | – | > 300 µM | > 300 µM | – | – |
| O=c1[nH]c(=O)n([C@H]2C[C@H](O)[C@@H](CO)O2)cc1/C=C/Br [BVDU, (E)-5-(2-Bromovinyl)-2′-deoxyuridine] | – | – | – | – | – | BVdU level in cell lysate [7]: 26.3 HPLC peak area at 300 nm; BvdUMP/(BVdUMP + BVdU) × 100 [7]: <4; BVdU level in cell lysate [8]: 39.0 HPLC peak area at 300 nm; BvdUMP/(BVdUMP + BVdU) × 100 [8]: 21.2; BVdU level in cell lysate [9]: 90.8 HPLC peak area at 300 nm; BvdUMP/(BVdUMP + BVdU) × 100 [9]: 44.2; IC50 at 72 h ([10]; CCD18co cells (normal colon epithelium), read-out: Cytotoxic Activity, CCD18co): > 1000 µM; IC50 at 72 h ([10]; Det551 cells (normal skin), read-out: Cytotoxic Activity, Det551): > 1000 µM; IC50 ([5]; Homo sapiens): < 0.8 µM |
| COC(=O)C(C)NP(=O)(OCC1OC(n2ccc(=O)[nH]c2=O)CC1O)Oc1ccccc1 (centres unmarked) [NB1025] | – | – | – | – | active | IC50 [11]: 192 µM |
| O=c1ccn(C2CC(O)C(CO)O2)c(=O)[nH]1 (centres unmarked) [NB1026] | – | – | – | – | little detectable activity | – |
